Assay results taken from PMC9246773, “Assessing the Activity of Antimicrobial Peptides Against Common Marine Bacteria Located in Rotifer (Brachionus plicatilis) Cultures” (Probiotics and Antimicrobial Proteins, 2022).
No end group written: not given here.

Legend:
[1] = cited from earlier work
From the text: A study by Haney determined the aggregation properties of the innate defence regulator (IDR) peptides 1018, 1002 and HH2 in different media such as salts and serum. These IDR peptides are synthetic analogues to natural host defence peptides (HDPs) found in organisms. […] Second-generation peptides are synthetically rearranged IDRs that are created to combat unwa ...

Vibrio rotiferianus [2] = assay type: cell-based; conditions: 48 h
Method: (§1) A range of bacterial species with the potential to be transferred to developing fish larvae as pathogens or probiotics were selected for use in the study (Table 2). Bacterial isolates were stored at −80 °C and thawed, and 25 µL of the isolates was spread onto marine salt agar (MSA) media. All isolates were incubated at 25 °C for 18 h to reach mid-log growth phase. All isolates were sub-cultured and identified using mass spectrometry (MALDI-TOF) using the BioTyper and MBT 8468 library (Bruker Pty Ltd). The isolate Tenacibaculum discolor was plated on Anacker and Oradal’s marine (AOM) media, incubated for 48 h and identified using the aforementioned method. Bacterial isolates were suspended in sterile saline (0.75% NaCl w/v) to 0.5 McFarland standard. […] The bacterial isolates T. discolor and Pseudoalteromonas sp. require marine salts to grow and were not added to MHB (0‰). The isolate T. discolor requires low nutrients to grow, therefore, a separate MHB (25‰) was prepared at a diluted ratio of 1 part MHB and 7 parts artificial seawater (25‰).
(§2) The protocol was followed to determine the minimum inhibitory concentration (MIC) of the selected peptides. Two MIC assays were performed, firstly to determine whether each peptide precipitated in MHB and thereby required acetic acid adjustments (supplementary materials) and secondly, to determine the antimicrobial activity of each peptide in artificial seawater (25‰). Peptide stock solutions (1.3 mg mL^−1) were made by diluting the peptides in sterile deionised water. MHB was made with deionised water to reach a concentration of approaching 0‰ and artificial sea salts (Sigma-Aldrich® S9883) to reach a salinity of 25‰.
(§3) A broth microdilution protocol was followed to test whether the AMPs precipitated in MHB. The isolates T. discolor and Pseudoalteromonas were excluded from this assay because they required marine salts for growth. The peptides HHC10 and HHC36 previously required acetic acid adjustments according to [63] and were not trialled in this assay. To test if peptides required acetic acid, each peptide was diluted 1:2 in acetic acid (0.02% acetic acid w/v, containing 0.4% BSA) solution. In a 96-well polypropylene microtitre plates (Costar® 3879), 100 µL of this peptide stock was added to the first well for each bacterial isolate tested and serially diluted 2-fold with acetic acid (0.01% acetic acid w/v, containing 0.2% BSA). From each well, 10 µL of each peptide concentration was added to the corresponding wells of a new 96-well microtitre plate. From each of the bacterial suspensions in MHB (0‰), 90 µL was added to each well. […] From each of the bacterial suspensions in MHB (0‰), 50 µL was added to each well. All peptide concentrations ranged from 0.125 - 65µg mL^-1 and the bacterial suspension in each well was approximately 5 × 10^5 CFU mL^-1. Antimicrobial peptides that have an MIC value two or more dilutions higher in the assay with no acetic acid, compared to the assay with acetic acid, require acetic acid adjustments. The 96-well plates were incubated at 25 °C and read at 24 and 48 hours. The MIC was visually determined using a Sensititre™ Vizion™ Digital MIC Viewing System (Thermo Scientific™), and the lowest AMP concentration that had no bacterial growth was recorded as the MIC after 48 hours. Each bacterium was trialled in duplicate.

[3] = tested on: Escherichia coli (ATCC 25922); assay type: cell-based; conditions: ATCC 25922, 48 h
Method: as §1, §2, §3

Vibrio harveyi [4] = assay type: cell-based; conditions: 48 h
Method: as §1, §2, §3

Vibrio alginolyticus [5] = assay type: cell-based; conditions: 48 h
Method: as §1, §2, §3

[6] = tested on: Vibrio harveyi (ATCC 35084); assay type: cell-based; conditions: ATCC 35084, 48 h
Method: as §1, §2, §3

Vibrio scophthalmi [7] = assay type: cell-based; conditions: 48 h
Method: as §1, §2, §3

Shewanella sp. [8] = assay type: cell-based; conditions: 48 h
Method: as §1, §2, §3

Vibrio rotiferianus [9] = assay type: cell-based; conditions: 48 h; remark: listed apart in the source
Method: as §1, §2
(§4) Once the acetic acid requirement for each peptide was determined (Table 3), the antimicrobial activity of each peptide was tested at a salinity of 0‰ and 25‰ for all bacterial isolates. A stock solution for peptides that required acetic acid was prepared by a 1:2 dilution in acetic acid (0.02% acetic acid w/v, containing 0.4% BSA) solution. In a 96-well polypropylene microtitre plates (Costar® 3879), 100 µL of this peptide stock was added to the first well for each bacterial isolate tested and serially diluted twofold with acetic acid (0.01% acetic acid w/v, containing 0.2% BSA). From each well, 10 µL of each peptide concentration was added to the corresponding wells of a new 96-well microtitre plate. From each of the bacterial suspensions (0‰), 90 µL was added to each well. […] Twofold serial dilutions were made with MHB (0‰). From each of the bacterial suspensions (0‰), 50 µL was added to each well. The same method was followed for testing peptides in MHB at 25‰. All peptide concentrations ranged from 0.125 to 65 µg mL^−1, and the bacterial suspension in each well was approximately 5 × 10^5 CFU mL^−1. The different salinities were used to compare any differences in antimicrobial activity in 0‰ and 25‰ water. […] Each bacterium was trialled in duplicate.

[10] = tested on: Escherichia coli (ATCC 25922); assay type: cell-based; conditions: ATCC 25922, 48 h; remark: listed apart in the source
Method: as §1, §2, §4

Vibrio harveyi [11] = assay type: cell-based; conditions: 48 h; remark: listed apart in the source
Method: as §1, §2, §4

Vibrio alginolyticus [12] = assay type: cell-based; conditions: 48 h; remark: listed apart in the source
Method: as §1, §2, §4

Pseudoalteromonas sp. = assay type: cell-based; conditions: 48 h
Method: as §1, §2, §4

[13] = tested on: Vibrio harveyi (ATCC 35084); assay type: cell-based; conditions: ATCC 35084, 48 h; remark: listed apart in the source
Method: as §1, §2, §4

Tenacibaculum discolor = assay type: cell-based; conditions: 48 h
Method: as §1, §2, §4

Vibrio scophthalmi [14] = assay type: cell-based; conditions: 48 h; remark: listed apart in the source
Method: as §1, §2, §4

Shewanella sp. [15] = assay type: cell-based; conditions: 48 h; remark: listed apart in the source
Method: as §1, §2, §4

bacterial isolates = assay type: cell-based; conditions: 18 h
Method: as §1, §2
Once the acetic acid requirement for each peptide was determined (Table 3), the antimicrobial activity of each peptide was tested at a salinity of 0‰ and 25‰ for all bacterial isolates. A stock solution for peptides that required acetic acid was prepared by a 1:2 dilution in acetic acid (0.02% acetic acid w/v, containing 0.4% BSA) solution. In a 96-well polypropylene microtitre plates (Costar® 3879), 100 µL of this peptide stock was added to the first well for each bacterial isolate tested and serially diluted twofold with acetic acid (0.01% acetic acid w/v, containing 0.2% BSA). From each well, 10 µL of each peptide concentration was added to the corresponding wells of a new 96-well microtitre plate. From each of the bacterial suspensions (0‰), 90 µL was added to each well. […] Twofold serial dilutions were made with MHB (0‰). From each of the bacterial suspensions (0‰), 50 µL was added to each well. The same method was followed for testing peptides in MHB at 25‰. All peptide concentrations ranged from 0.125 to 65 µg mL^−1, and the bacterial suspension in each well was approximately 5 × 10^5 CFU mL^−1. […]

Substance | cytotoxicity [1] | MIC V. rotiferianus, Acetic (Vibrio rotiferianus [2]) | MIC V. rotiferianus, No acetic (Vibrio rotiferianus [2]) | MIC E. coli ATCC 25922, Acetic [3] | MIC E. coli ATCC 25922, No acetic [3] | MIC V. harveyi, Acetic (Vibrio harveyi [4]) | MIC V. harveyi, No acetic (Vibrio harveyi [4]) | MIC V. alginolyticus, Acetic (Vibrio alginolyticus [5]) | MIC V. alginolyticus, No acetic (Vibrio alginolyticus [5]) | MIC V. harveyi ATCC 35084, Acetic [6] | MIC V. harveyi ATCC 35084, No acetic [6] | MIC V. scophthalmi, Acetic (Vibrio scophthalmi [7]) | MIC V. scophthalmi, No acetic (Vibrio scophthalmi [7]) | MIC Shewanella sp., Acetic (Shewanella sp. [8]) | MIC Shewanella sp., No acetic (Shewanella sp. [8]) | MIC V. rotiferianus, salinity 0‰ (Vibrio rotiferianus [9]) | MIC V. rotiferianus, salinity 25‰ (Vibrio rotiferianus [9]) | MIC E. coli ATCC 25922, salinity 0‰ [10] | MIC E. coli ATCC 25922, salinity 25‰ [10] | MIC V. harveyi, salinity 0‰ (Vibrio harveyi [11]) | further results
KWRLLIRWRIQK [Peptide 2009] | caused cytotoxicity | 0.13 µg/mL | 1.02 µg/mL | 2.03 µg/mL | 2.03 µg/mL | 1.02 µg/mL | 1.02 µg/mL | 1.02 µg/mL | 1.02 µg/mL | 1.02 µg/mL | 1.02 µg/mL | 0.13 µg/mL | 0.51 µg/mL | 0.25 µg/mL | 1.02 µg/mL | 0.13 µg/mL | 32.5 µg/mL | 2.03 µg/mL | > 65 µg/mL | 1.02 µg/mL | MIC V. harveyi, salinity 25‰ (Vibrio harveyi [11]): > 65 µg/mL; MIC V. alginolyticus, salinity 0‰ (Vibrio alginolyticus [12]): 1.02 µg/mL; MIC V. alginolyticus, salinity 25‰ (Vibrio alginolyticus [12]): 65 µg/mL; MIC Pseudoalteromonas sp., salinity 25‰ (Pseudoalteromonas sp.): > 65 µg/mL; MIC V. harveyi ATCC 35084, salinity 0‰ [13]: 1.02 µg/mL; MIC V. harveyi ATCC 35084, salinity 25‰ [13]: > 65 µg/mL; MIC T. discolor, salinity 25‰ (Tenacibaculum discolor): > 65 µg/mL; MIC V. scophthalmi, salinity 0‰ (Vibrio scophthalmi [14]): < 0.13 µg/mL; MIC V. scophthalmi, salinity 25‰ (Vibrio scophthalmi [14]): 32.5 µg/mL; MIC Shewanella sp., salinity 0‰ (Shewanella sp. [15]): 0.51 µg/mL; MIC Shewanella sp., salinity 25‰ (Shewanella sp. [15]): > 65 µg/mL; MIC against the probiotic strains, low salt (bacterial isolates): 0.13 to 0.25 µg/mL
RRWIVKVRIRRR-NH2 [Peptide 2008] | caused cytotoxicity | 0.25 µg/mL | 1.02 µg/mL | 2.03 µg/mL | 4.06 µg/mL | 1.02 µg/mL | 1.02 µg/mL | 0.51 µg/mL | 1.02 µg/mL | 1.02 µg/mL | 1.02 µg/mL | 0.13 µg/mL | 0.25 µg/mL | 0.13 µg/mL | 0.51 µg/mL | 0.25 µg/mL | 65 µg/mL | 4.06 µg/mL | > 65 µg/mL | 1.02 µg/mL | MIC V. harveyi, salinity 25‰ (Vibrio harveyi [11]): > 65 µg/mL; MIC V. alginolyticus, salinity 0‰ (Vibrio alginolyticus [12]): 0.13 µg/mL; MIC V. alginolyticus, salinity 25‰ (Vibrio alginolyticus [12]): 65 µg/mL; MIC Pseudoalteromonas sp., salinity 25‰ (Pseudoalteromonas sp.): 65 µg/mL; MIC V. harveyi ATCC 35084, salinity 0‰ [13]: 1.02 µg/mL; MIC V. harveyi ATCC 35084, salinity 25‰ [13]: > 65 µg/mL; MIC T. discolor, salinity 25‰ (Tenacibaculum discolor): > 65 µg/mL; MIC V. scophthalmi, salinity 0‰ (Vibrio scophthalmi [14]): 0.25 µg/mL; MIC V. scophthalmi, salinity 25‰ (Vibrio scophthalmi [14]): 65 µg/mL; MIC Shewanella sp., salinity 0‰ (Shewanella sp. [15]): 0.51 µg/mL; MIC Shewanella sp., salinity 25‰ (Shewanella sp. [15]): 65 µg/mL; MIC against the probiotic strains, low salt (bacterial isolates): 0.13 to 0.25 µg/mL
